Results published in patent US20160158200A1, “Combinations of Hepatitis C Virus Inhibitors” (priority 2013, published 2016).

Each compound was assayed on HCV genotype-1a variant with glutamine 30 changed to glutamate in the NS5A protein. Conditions: test compound titrated with BMS-790052 fixed at 200 nM; genotype 1a Q30E replicon.
Assay type: cell-based
Procedure, shortened: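 Synergy was assessed by combining several fixed amounts of an NS5A-targeting compound with a titration of the second compound of interest.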

SMILES	Fold-Synergistic 1a (Q30E)
CC(C)(C)OC(=O)NC1(C(=O)N[C@H](c2nc(-c3ccc(-c4ccc(-c5c[nH]c([C@@H](NC(=O)C6(NC(=O)OC(C)(C)C)CCCC6)C(C)(C)C)n5)cc4)cc3)c[nH]2)C(C)(C)C)CCCC1.O=C(O)C(F)(F)F.O=C(O)C(F)(F)F [Compound L-6]	>100 fold
CC(C)(C)OC(=O)NC1(C(=O)N[C@H](c2nc(-c3ccc(-c4ccc(-c5c[nH]c([C@@H](NC(=O)C6(NC(=O)OC(C)(C)C)CCCCC6)C(C)(C)C)n5)cc4)cc3)c[nH]2)C(C)(C)C)CCCCC1.O=C(O)C(F)(F)F.O=C(O)C(F)(F)F [Compound L-7]	>100 fold
CN(C(=O)OC(C)(C)C)C(C)(C)C(=O)N[C@H](c1nc(-c2ccc(-c3ccc(-c4c[nH]c([C@@H](NC(=O)C(C)(C)N(C)C(=O)OC(C)(C)C)C(C)(C)C)n4)cc3)cc2)c[nH]1)C(C)(C)C.O=C(O)C(F)(F)F.O=C(O)C(F)(F)F [Compound L-8]	>100 fold
CC(C)(C)C(NC(=O)C1COC(=O)N1)c1nc(-c2ccc(-c3ccc(-c4c[nH]c(C(NC(=O)C5COC(=O)N5)C(C)(C)C)n4)cc3)cc2)c[nH]1.O=C(O)C(F)(F)F.O=C(O)C(F)(F)F [Compound L-9]	>10 fold
CC(C)(C)[C@H](NC(=O)[C@@H]1CCC(=O)N1)c1nc(-c2ccc(-c3ccc(-c4c[nH]c([C@@H](NC(=O)[C@@H]5CCC(=O)N5)C(C)(C)C)n4)cc3)cc2)c[nH]1.O=C(O)C(F)(F)F.O=C(O)C(F)(F)F [Compound L-10]	>10 fold
CC(=O)N(C)C1(C(=O)N[C@H](c2nc(-c3ccc(-c4ccc(-c5c[nH]c([C@@H](NC(=O)C6(N(C)C(C)=O)CC6)C(C)(C)C)n5)cc4)cc3)c[nH]2)C(C)(C)C)CC1.O=C(O)C(F)(F)F.O=C(O)C(F)(F)F [Compound L-11]	>100 fold
CC(=O)N(C)C1(C(=O)N[C@H](c2nc(-c3ccc(-c4ccc(-c5c[nH]c([C@@H](NC(=O)C6(N(C)C(C)=O)CCC6)C(C)(C)C)n5)cc4)cc3)c[nH]2)C(C)(C)C)CCC1.O=C(O)C(F)(F)F.O=C(O)C(F)(F)F [Compound L-12]	>100 fold
CN(C(=O)OC(C)(C)C)C1(C(=O)N[C@H](c2nc(-c3ccc(-c4ccc(-c5c[nH]c([C@@H](NC(=O)C6(N(C)C(=O)OC(C)(C)C)CC6)C(C)(C)C)n5)cc4)cc3)c[nH]2)C(C)(C)C)CC1.O=C(O)C(F)(F)F.O=C(O)C(F)(F)F [Compound L-13]	>100 fold
CN(C(=O)OC(C)(C)C)C1(C(=O)N[C@H](c2nc(-c3ccc(-c4ccc(-c5c[nH]c([C@@H](NC(=O)C6(N(C)C(=O)OC(C)(C)C)CCC6)C(C)(C)C)n5)cc4)cc3)c[nH]2)C(C)(C)C)CCC1.O=C(O)C(F)(F)F.O=C(O)C(F)(F)F [Compound L-14]	>100 fold
CC(C)(C)OC(=O)N1CCCC[C@@H]1C(=O)N[C@H](c1nc(-c2ccc(-c3ccc(-c4c[nH]c([C@@H](NC(=O)[C@H]5CCCCN5C(=O)OC(C)(C)C)C(C)(C)C)n4)cc3)cc2)c[nH]1)C(C)(C)C [Compound L-16]	>100 fold
CC(C)(C)OC(=O)N1CCCC[C@H]1C(=O)N[C@H](c1nc(-c2ccc(-c3ccc(-c4c[nH]c([C@@H](NC(=O)[C@@H]5CCCCN5C(=O)OC(C)(C)C)C(C)(C)C)n4)cc3)cc2)c[nH]1)C(C)(C)C [Compound L-17]	>100 fold
COC(=O)N(C)C(C)(C)C(=O)N[C@H](c1nc(-c2ccc(-c3ccc(-c4c[nH]c([C@@H](NC(=O)C(C)(C)N(C)C(=O)OC)C(C)(C)C)n4)cc3)cc2)c[nH]1)C(C)(C)C [Compound L-18]	>100 fold
COC(=O)N(C)C1(C(=O)N[C@H](c2nc(-c3ccc(-c4ccc(-c5c[nH]c([C@@H](NC(=O)C6(N(C)C(=O)OC)CC6)C(C)(C)C)n5)cc4)cc3)c[nH]2)C(C)(C)C)CC1.O=C(O)C(F)(F)F.O=C(O)C(F)(F)F [Compound L-19]	>100 fold
CN(C(=O)OCCF)C(C)(C)C(=O)N[C@H](c1nc(-c2ccc(-c3ccc(-c4c[nH]c([C@@H](NC(=O)C(C)(C)N(C)C(=O)OCCF)C(C)(C)C)n4)cc3)cc2)c[nH]1)C(C)(C)C [Compound L-20]	>100 fold
CC(C)(C)OC(=O)N1CCC(F)(F)C[C@H]1C(=O)N[C@H](c1nc(-c2ccc(-c3ccc(-c4c[nH]c([C@@H](NC(=O)[C@@H]5CC(F)(F)CCN5C(=O)OC(C)(C)C)C(C)(C)C)n4)cc3)cc2)c[nH]1)C(C)(C)C [Compound L-21]	>100 fold
COC(=O)N(C)C1(C(=O)N[C@H](c2nc(-c3ccc(-c4ccc(-c5c[nH]c([C@@H](NC(=O)C6(N(C)C(=O)OC)CC6)C6CC6)n5)cc4)cc3)c[nH]2)C2CC2)CC1 [Compound L-34]	>100 fold
CCN(CC(F)(F)F)C(=O)C(=O)NC(c1nc(-c2ccc(-c3ccc(-c4c[nH]c(C(NC(=O)C(=O)N(CC)CC(F)(F)F)C5CC5)n4)cc3)cc2)c[nH]1)C1CC1 [Compound L-35]	>100 fold
CC(C)N(C(=O)C(=O)NC(c1nc(-c2ccc(-c3ccc(-c4c[nH]c(C(NC(=O)C(=O)N(C(C)C)C5CC5)C5CC5)n4)cc3)cc2)c[nH]1)C1CC1)C1CC1 [Compound L-36]	>100 fold
O=C(NC(c1nc(-c2ccc(-c3ccc(-c4c[nH]c(C(NC(=O)C(=O)N5CCC(F)(F)CC5)C5CC5)n4)cc3)cc2)c[nH]1)C1CC1)C(=O)N1CCC(F)(F)CC1 [Compound L-37]	>100 fold

SMILES	Fold-Synergistic 1a (Q30E)
COC(=O)N(C)CC1(C(=O)N[C@H](c2nc(-c3ccc(-c4ccc(-c5c[nH]c([C@@H](NC(=O)C6(CN(C)C(=O)OC)CC6)C(C)(C)C)n5)cc4)cc3)c[nH]2)C(C)(C)C)CC1 [Compound L-41]	>100 fold
CC(OC(=O)NC1(C(=O)NC(c2nc(-c3ccc(-c4ccc(-c5c[nH]c(C(NC(=O)C6(NC(=O)OC(C)C(F)(F)F)CC6)C6(C)CC6)n5)cc4)cc3)c[nH]2)C2(C)CC2)CC1)C(F)(F)F [Compound L-42]	>100 fold
CC1(C(=O)N[C@H](c2nc(-c3ccc(-c4ccc(-c5c[nH]c([C@@H](NC(=O)C6(C)CC6)C(C)(C)C)n5)cc4)cc3)c[nH]2)C(C)(C)C)CC1 [Compound L-45]	>100 fold
CC(C)(C)OC(=O)NC1(C(=O)NC(c2nc(-c3ccc(-c4ccc(-c5c[nH]c(C(NC(=O)C6(NC(=O)OC(C)(C)C)CCC(F)(F)CC6)C(C)(C)C)n5)cc4)cc3)c[nH]2)C(C)(C)C)CCC(F)(F)CC1 [Compound L-49]	>100 fold
CC(C)(NCC(F)(F)F)C(=O)NC(c1nc(-c2ccc(-c3ccc(-c4c[nH]c(C(NC(=O)C(C)(C)NCC(F)(F)F)C(C)(C)C)n4)cc3)cc2)c[nH]1)C(C)(C)C [Compound L-50]	>100 fold
CC(C)(C)C(NC(=O)C1CCCCN1CC(F)(F)F)c1nc(-c2ccc(-c3ccc(-c4c[nH]c(C(NC(=O)C5CCCCN5CC(F)(F)F)C(C)(C)C)n4)cc3)cc2)c[nH]1 [Compound L-51]	>100 fold
CC(C)(C)C(NC(=O)C1CCCN1CC(F)(F)F)c1nc(-c2ccc(-c3ccc(-c4c[nH]c(C(NC(=O)C5CCCN5CC(F)(F)F)C(C)(C)C)n4)cc3)cc2)c[nH]1 [Compound L-52]	>100 fold
CC1(C)CC(C(=O)NC(c2nc(-c3ccc(-c4ccc(-c5c[nH]c(C(NC(=O)C6CC(C)(C)C6)C(C)(C)C)n5)cc4)cc3)c[nH]2)C(C)(C)C)C1 [Compound L-53]	>100 fold
COC1CC(C(=O)NC(c2nc(-c3ccc(-c4ccc(-c5c[nH]c(C(NC(=O)C6CC(OC)C6)C(C)(C)C)n5)cc4)cc3)c[nH]2)C(C)(C)C)C1 [Compound L-54]	>100 fold
CC(C)(C)OC(=O)N1C(C(=O)NC(c2nc(-c3ccc(-c4ccc(-c5c[nH]c(C(NC(=O)C6COC(C)(C)N6C(=O)OC(C)(C)C)C(C)(C)C)n5)cc4)cc3)c[nH]2)C(C)(C)C)COC1(C)C [Compound L-55]	>100 fold
CC(C)(CO)C(=O)NC(c1nc(-c2ccc(-c3ccc(-c4c[nH]c(C(NC(=O)C(C)(C)CO)C(C)(C)C)n4)cc3)cc2)c[nH]1)C(C)(C)C [Compound L-56]	>100 fold
CC(C)(C)OC(=O)N1CC2(CC(C(=O)NC(c3nc(-c4ccc(-c5ccc(-c6c[nH]c(C(NC(=O)C7CC8(C7)CN(C(=O)OC(C)(C)C)C8)C(C)(C)C)n6)cc5)cc4)c[nH]3)C(C)(C)C)C2)C1 [Compound L-57]	>100 fold
CC(C)(C)OC(=O)N1CC(C)(C)OCC1C(=O)NC(c1nc(-c2ccc(-c3ccc(-c4c[nH]c(C(NC(=O)C5COC(C)(C)CN5C(=O)OC(C)(C)C)C(C)(C)C)n4)cc3)cc2)c[nH]1)C(C)(C)C [Compound L-60]	>100 fold
CC(C)(C)OC(=O)N1CCOCC1C(=O)NC(c1nc(-c2ccc(-c3ccc(-c4c[nH]c(C(NC(=O)C5COCCN5C(=O)OC(C)(C)C)C(C)(C)C)n4)cc3)cc2)c[nH]1)C(C)(C)C [Compound L-61]	>100 fold
CN(CC(F)(F)F)C(C)(C)C(=O)NC(c1nc(-c2ccc(-c3ccc(-c4c[nH]c(C(NC(=O)C(C)(C)N(C)CC(F)(F)F)C(C)(C)C)n4)cc3)cc2)c[nH]1)C(C)(C)C [Compound L-62]	>100 fold
CC(C)(C)OC(=O)N1CC(C)(C(=O)NC(c2nc(-c3ccc(-c4ccc(-c5c[nH]c(C(NC(=O)C6(C)CN(C(=O)OC(C)(C)C)C6)C(C)(C)C)n5)cc4)cc3)c[nH]2)C(C)(C)C)C1 [Compound L-63]	>100 fold
CC(C)(C)C(NC(=O)C1CCCO1)c1nc(-c2ccc(-c3ccc(-c4c[nH]c(C(NC(=O)C5CCCO5)C(C)(C)C)n4)cc3)cc2)c[nH]1 [Compound L-64]	>100 fold
CC(C)(C)C(NC(=O)C1CCCO1)c1nc(-c2ccc(-c3ccc(-c4c[nH]c(C(NC(=O)C5CCCO5)C(C)(C)C)n4)cc3)cc2)c[nH]1 [Compound L-65]	>100 fold
CC(C)(C)C(NC(=O)C1C2COCC21)c1nc(-c2ccc(-c3ccc(-c4c[nH]c(C(NC(=O)C5C6COCC65)C(C)(C)C)n4)cc3)cc2)c[nH]1 [Compound L-67]	>100 fold
